From ChEMBL document CHEMBL1201862, “PubChem BioAssay data set” (2004)
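A five-concentration, 48-hour dose response in 96-well plates underlies each endpoint, interpolated linearly between surrounding concentrations. Abbreviation: GI50, concentration required for 50% inhibition of growth.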 Active and inactive are the calls of the source. Rule as the data show it: active = GI50 up to about 1.1 µM and inactive = higher.

Key:
Assay in all cases: inhibition of tumour cell growth, NCI panel, 48 h
KM12 = test system: KM12
SK-MEL-5 = test system: SK-MEL-5
K562 = test system: K562
HL-60 = test system: HL-60
SF-268 = test system: SF-268
M14 = test system: M14
CAKI-1 = test system: CAKI-1
MDA-N = test system: MDA-N
MCF7 = test system: MCF7
UACC-62 = test system: UACC-62
MDA-MB-231 = test system: MDA-MB-231
HT-29 = test system: HT-29
SN12C = test system: SN12C
SNB-75 = test system: SNB-75
Malme-3M = test system: Malme-3M
OVCAR-8 = test system: OVCAR-8
UACC-257 = test system: UACC-257
NCI-H23 = test system: NCI-H23
PC-3 = test system: PC-3
DU-145 = test system: DU-145
RPMI-8226 = test system: RPMI-8226
A549 = test system: A549
IGROV-1 = test system: IGROV-1
CCRF-CEM = test system: CCRF-CEM
SK-OV-3 = test system: SK-OV-3
HCT-15 = test system: HCT-15
RXF 393 = test system: RXF 393
EKVX = test system: EKVX
SW-620 = test system: SW-620
MOLT-4 = test system: MOLT-4
SK-MEL-28 = test system: SK-MEL-28
SR = test system: SR
HOP-62 = test system: HOP-62
LOX IMVI = test system: LOX IMVI
786-0 = test system: 786-0
HCC 2998 = test system: HCC 2998
TK-10 = test system: TK-10
SF-295 = test system: SF-295
T47D = test system: T47D
U-251 = test system: U-251
OVCAR-4 = test system: OVCAR-4
NCI-H460 = test system: NCI-H460
SNB-19 = test system: SNB-19
HOP-92 = test system: HOP-92
ACHN = test system: ACHN
NCI-H226 = test system: NCI-H226
OVCAR-5 = test system: OVCAR-5
SF-539 = test system: SF-539
NCI/ADR-RES = test system: NCI/ADR-RES
UO-31 = test system: UO-31
MDA-MB-435 = test system: MDA-MB-435
Hs-578T = test system: Hs-578T
COLO 205 = test system: COLO 205
HCT-116 = test system: HCT-116
OVCAR-3 = test system: OVCAR-3
SK-MEL-2 = test system: SK-MEL-2

SMILES: CC(C)(Oc1ccc2c(=O)cc(-c3ccccc3)oc2c1)C(=O)N1CCN(c2ccccc2)CC1
- GI50 (KM12): 3.42 µM (inactive)
- GI50 (SK-MEL-5): 4.54 µM (inactive)
- GI50 (K562): 3.17 µM (inactive)
- GI50 (HL-60): 1.62 µM (inactive)
- GI50 (SF-268): 4.16 µM (inactive)
- GI50 (M14): 3.64 µM (inactive)
- GI50 (CAKI-1): 3.7 µM (inactive)
- GI50 (MDA-N): 3.41 µM (inactive)
- GI50 (MCF7): 3.23 µM (inactive)
- GI50 (UACC-62): 3.71 µM (inactive)
- GI50 (MDA-MB-231): 6.46 µM (inactive)
- GI50 (HT-29): 4.08 µM (inactive)
- GI50 (SN12C): 5.74 µM (inactive)
- GI50 (SNB-75): 4.76 µM (inactive)
- GI50 (Malme-3M): 4.84 µM (inactive)
- GI50 (OVCAR-8): 5.57 µM (inactive)
- GI50 (UACC-257): 3.56 µM (inactive)
- GI50 (NCI-H23): 3.24 µM (inactive)
- GI50 (PC-3): 3.05 µM (inactive)
- GI50 (DU-145): 6.12 µM (inactive)
- GI50 (RPMI-8226): 2.52 µM (inactive)
- GI50 (A549): 4.95 µM (inactive)
- GI50 (IGROV-1): > 10 µM (inactive)
- GI50 (CCRF-CEM): 3.15 µM (inactive)
- GI50 (SK-OV-3): > 10 µM (inactive)
- GI50 (HCT-15): 4.55 µM
- GI50 (RXF 393): 1.47 µM (inactive)
- GI50 (EKVX): 5.28 µM (inactive)
- GI50 (SW-620): 6.64 µM (inactive)
- GI50 (MOLT-4): 2.6 µM (inactive)
- GI50 (SK-MEL-28): 6.81 µM (inactive)
- GI50 (SR): 2.49 µM (inactive)
- GI50 (HOP-62): 5.55 µM (inactive)
- GI50 (LOX IMVI): 5.5 µM (inactive)
- GI50 (786-0): 5.89 µM (inactive)
- GI50 (HCC 2998): 5.94 µM (inactive)
- GI50 (TK-10): 8.17 µM (inactive)
- GI50 (SF-295): 4.71 µM (inactive)
- GI50 (T47D): 3.2 µM (inactive)

SMILES: N#CCN1CCCCCc2ccccc21
- GI50 (KM12): > 100 µM (inactive)
- GI50 (SK-MEL-5): > 100 µM (inactive)
- GI50 (K562): > 100 µM (inactive)
- GI50 (HL-60): > 100 µM (inactive)
- GI50 (U-251): > 100 µM (inactive)
- GI50 (OVCAR-4): > 100 µM (inactive)
- GI50 (NCI-H460): > 100 µM (inactive)
- GI50 (SNB-19): > 100 µM (inactive)
- GI50 (SF-268): > 100 µM (inactive)
- GI50 (M14): > 100 µM (inactive)
- GI50 (HOP-92): > 100 µM (inactive)
- GI50 (ACHN): > 100 µM (inactive)
- GI50 (MCF7): > 100 µM (inactive)
- GI50 (NCI-H226): > 100 µM (inactive)
- GI50 (UACC-62): > 100 µM (inactive)
- GI50 (MDA-MB-231): > 100 µM (inactive)
- GI50 (OVCAR-5): > 100 µM (inactive)
- GI50 (SF-539): > 100 µM (inactive)
- GI50 (HT-29): > 100 µM (inactive)
- GI50 (SN12C): > 100 µM (inactive)
- GI50 (SNB-75): > 100 µM (inactive)
- GI50 (Malme-3M): > 100 µM (inactive)
- GI50 (OVCAR-8): > 100 µM (inactive)
- GI50 (UACC-257): > 100 µM (inactive)
- GI50 (NCI-H23): > 100 µM (inactive)
- GI50 (NCI/ADR-RES): > 100 µM (inactive)
- GI50 (DU-145): > 100 µM (inactive)
- GI50 (RPMI-8226): > 100 µM (inactive)
- GI50 (A549): > 100 µM (inactive)
- GI50 (IGROV-1): > 100 µM (inactive)
- GI50 (CCRF-CEM): > 100 µM (inactive)
- GI50 (SK-OV-3): > 100 µM (inactive)
- GI50 (HCT-15): > 100 µM
- GI50 (UO-31): > 100 µM (inactive)
- GI50 (MDA-MB-435): > 100 µM (inactive)
- GI50 (RXF 393): > 100 µM (inactive)
- GI50 (EKVX): > 100 µM (inactive)
- GI50 (Hs-578T): > 100 µM (inactive)
- GI50 (SW-620): > 100 µM (inactive)
- GI50 (MOLT-4): > 100 µM (inactive)
- GI50 (SK-MEL-28): > 100 µM (inactive)
- GI50 (SR): > 100 µM (inactive)
- GI50 (HOP-62): > 100 µM (inactive)
- GI50 (COLO 205): > 100 µM (inactive)
- GI50 (786-0): > 100 µM (inactive)
- GI50 (HCC 2998): > 100 µM (inactive)
- GI50 (HCT-116): > 100 µM (inactive)
- GI50 (TK-10): > 100 µM (inactive)
- GI50 (SF-295): 53.5 µM (inactive)
- GI50 (T47D): > 100 µM (inactive)

SMILES: CCC(CCCC[C@@H]1CC[C@H]2CC(=O)C[C@@H]12)OC (some centres undefined)
- GI50 (KM12): > 100 µM (inactive)
- GI50 (SK-MEL-5): 73.5 µM (inactive)
- GI50 (K562): 36.7 µM (inactive)
- GI50 (HL-60): 49.5 µM (inactive)
- GI50 (U-251): > 100 µM (inactive)
- GI50 (NCI-H460): > 100 µM (inactive)
- GI50 (SNB-19): > 100 µM (inactive)
- GI50 (M14): > 100 µM (inactive)
- GI50 (HOP-92): > 100 µM (inactive)
- GI50 (OVCAR-3): > 100 µM (inactive)
- GI50 (MCF7): > 100 µM (inactive)
- GI50 (UACC-62): > 100 µM (inactive)
- GI50 (MDA-MB-231): > 100 µM (inactive)
- GI50 (OVCAR-8): > 100 µM (inactive)
- GI50 (UACC-257): 56.6 µM (inactive)
- GI50 (NCI-H23): 91.6 µM (inactive)
- GI50 (PC-3): > 100 µM (inactive)
- GI50 (NCI/ADR-RES): 76.6 µM (inactive)
- GI50 (SK-MEL-2): > 100 µM (inactive)
- GI50 (DU-145): > 100 µM (inactive)
- GI50 (IGROV-1): > 100 µM (inactive)
- GI50 (CCRF-CEM): > 100 µM (inactive)
- GI50 (SK-OV-3): > 100 µM (inactive)
- GI50 (RXF 393): > 100 µM (inactive)
- GI50 (EKVX): > 100 µM (inactive)
- GI50 (MOLT-4): > 100 µM (inactive)
- GI50 (COLO 205): > 100 µM (inactive)
- GI50 (786-0): > 100 µM (inactive)
- GI50 (HCT-116): > 100 µM (inactive)
- GI50 (T47D): > 100 µM (inactive)
